According to paper PMC5458211, “Mitochondrial VDAC1-based peptides: Attacking oncogenic properties in glioblastoma” (Oncotarget, 2017):
Non-standard residues stand in square brackets, D forms with d. Residues, ends and D or L forms follow the SMILES beside them.

How the values were obtained:
SH-SY5Y cells = test: Cell death by PI staining and flow cytometry, SH-SY5Y; format: cell-based; conditions: human neuroblastoma, 6 h at 37°C, serum-free medium, Suppl Fig 1
Method: (§1) Cells (6×10^5 /ml) were incubated in 500 μl serum-free medium with the peptide of interest for 6 h at 37°C in the presence of 5% CO2. The cells were then trypsinized, centrifuged (1500xg, 5 min), washed with PBS and analyzed for cell death using propidium iodide (PI) staining and flow cytometer (Beckton-Dickinson, San Jose, CA) and BD CellQuest Pro software. Apoptotic cell death was also analyzed by PI and annexin V-FITC staining, and by acridine orange and ethidium bromide staining and light microscopy (Olympus LX2-KSP). […]
was subsequently visualized by incubating with DAB. […]
Supplementary Figure 1: VDAC1-based peptides induce dramatic cell death of several brain tumor-derived cell […]
Ter-Antp (●) peptide in serum-free appropriate growth medium for 6 h at 37°C. Cells were harvested, washed twice with PBS and cell death was analyzed by propidium iodide (PI) staining and ﬂow cytometry. D. Summary of IC50 values (μM) for the peptides with the indicated […]
(also on this page, place not known: www.impactjournals.com/oncotarget/ Oncotarget, Materials 2017 V , Supplementary) […]

Neuro-2a cells = test: Cell death by PI staining and flow cytometry, Neuro-2a; format: cell-based; conditions: mouse neuroblastoma, 6 h at 37°C, serum-free medium, Suppl Fig 1
Method: as §1
overnight at 4°C with primary antibodies (sources and After rinsing in water, the sections were counter-stained dilutions used detailed in Table S2) and washed with hematoxylin, and mounted with mounting medium.
PBST. For IHC, endogenous peroxidase activity was Finally, the sections were observed under a microscope blocked by incubating the sections in 3% H2O2 for 15 min. (Leica DM2500) and images were collected at 20× After washing thoroughly with PBST, the sections were magnification with the same light intensity and exposure incubated with the appropriate secondary antibodies for 2 time. Non-specific control experiments were carried out h. […]
Ter-Antp (●) peptide in serum-free appropriate growth medium for 6 h at 37°C. Cells were harvested, washed twice with PBS and cell death was analyzed by propidium iodide (PI) staining and ﬂow cytometry. […]

[1] = system: metabolic enzymes and transporters; test: Expression of energy- and metabolism-related proteins in treated tumors (IHC, immunoblot); format: in vivo, human U-87MG in nude mice; conditions: for VDAC1 staining: treated tumors vs strong staining in PBS/DMSO
Source text: Figure 5 VDAC1-based peptide-treated tumors show marked changes in the expression of energy- and metabolism-related enzymes Dissected tumors were subjected to immunohistochemistry as described in Experimental Procedures. A, B. Representative sections from PBS/DMSO- and Tf-D-LP4-TTs were IHC stained for Glut-1, HK-I, HK-II, GAPDH, LDH, VDAC1, CS, Complex IVc and ATP synthase 5a are presented. Sections were also hematoxylin-stained and visualized by microscopy. C. Tissue lysates obtained from controls and several Tf-D-LP4-TTs were immunoblotted for HK-I, HK-II, VDAC1, GAPDH, LDH, CS, and ATP synthase 5a. D. Quantitative analysis of immunoblots is shown (n=2-4).
Formalin-fixed, paraffin-embedded sections of control and peptide-TTs were hematoxylin-eosin stained, probed with appropriate antibodies via IHC staining or immunoblotting of cells and tissue extracts. […]
10 ml of aqueous solution containing 1% PVA (w/v). The software. These experimental protocols were approved by mixtures were stirred continuously at room temperature the Institutional Animal Care and Use Committee of Ben-until complete evaporation of the organic solvent. The Gurion University. […]
HBSS solution. Cells or tumor tissue were lysed using lysis buffer (50 mM Tris-HCl, pH 7.5, 150 mM NaCl, 1
Xenograft and intracranial-orthotopic mouse mM EDTA, 1.5 mM MgCl2, 10% glycerol, 1% Triton models X-100, supplemented with a protease inhibitor cocktail
(Calbiochem, UK). Cell lysates were then centrifuged at U-87MG glioblastoma cells (3 x106) were inoculated 600xg (10 min at 4°C) and samples (10-40 μg of protein) s.c. into the hind leg ﬂanks of athymic eight-week old were subjected to SDS-PAGE and immunoblotting male nude mice (Envigo). Thirteen days post-inoculation, using various primary antibodies (sources and dilutions tumor volume was measured and calculated (100-130 as detailed in supplementary Table 2), followed by mm3) and mice were randomized into three groups (5 the appropriate HRP-conjugated secondary antibodies mice/group). Each treatment substance was injected into (i.e., anti-mouse, anti-rabbit or anti-goat). Blots the established s,c. tumors using PBS containing 0.26% were developed using enhanced chemiluminescence DMSO or peptide in PBS, 0.26% DMSO/20 μM). The (Biological Industries). Band intensities were analyzed xenografts were injected 20 µl per tumor (2 points) every by densitometry using Multi Gauge software (Fujifilm) two days. Beginning on the day of inoculation, mouse and the values were normalized to the intensities of the weight and tumor volume were monitored twice a week appropriate β-actin signal that served as a loading control. for a period of 23 days using a digital caliper. At the end of the experiments, the mice were sacrificed, tumors were IHC of tumor tissue sections excised and ex vivo weight was determined. Half of each tumor was either fixed in 4% buffered formaldehyde, IHC staining was performed on 5 μm-thick paraffin-embedded and processed for IHC or frozen in formalin-fixed and paraffin-embedded tumor tissue liquid nitrogen for later immunoblot analysis. sections. The sections were deparaffinized by placing To generate an intracranial-orthotopic mouse model, the slides at 60°C for 1 h and using xylene. […]
(Stoelting, Wood Dale, IL). A middle incision was made c, cytochrome c oxidase subunit IVc, GAPDH, Glut1, on the skull and a burr hole was introduced 0.5 mm HK-II, Klf4, LDH, Nestin, NGFR, P53, SMAC/Diablo, anterior to the bregma and 2.5 mm lateral to the midline Sox2, S100b, VDAC1) was performed in 0.01 M citrate using a drill (Stoelting). A 31-gauge needle loaded with buffer (pH 6.0). For CD31, HK-I and Ki-67, antigen 10 µL PBS was used to deliver tumor cells. The needle retrieval was performed in 10 mM Tris-EDTA (pH 9) and tip was inserted into the brain 3 mm deep, relative to the 0.5 M Tris (pH 10), for 30 minutes each at 95-98°C. After […]

Compound	cell death, SH-SY5Y (SH-SY5Y cells)	cell death, Neuro-2a (Neuro-2a cells)	VDAC1 staining [1]	ATP synthase subunit 5a expression ([1]; treated tumors vs PBS/DMSO)	GAPDH level ([1]; treated tumors vs PBS/DMSO)	Glut-1 level ([1]; treated tumors vs PBS/DMSO)	HK-I level ([1]; treated tumors vs PBS/DMSO)	HK-II level ([1]; treated tumors vs PBS/DMSO)	LDH level ([1]; treated tumors vs PBS/DMSO)	citrate synthase (CS) expression ([1]; treated tumors vs PBS/DMSO)	complex IVc expression ([1]; treated tumors vs PBS/DMSO)
CC[C@@H](C)[C@@H](NC(=O)[C@@H](CCCCN)NC(=O)[C@H](NC(=O)[C@@H](CCC(N)=O)NC(=O)[C@@H](CCCNC(=N)N)NC(=O)[C@@H](CC(C)C)NC(=O)CNC(=O)[C@@H](Cc1ccccc1)NC(=O)CNC(=O)[C@@H](Cc1ccc(O)cc1)NC(=O)CNC(=O)[C@@H](CCCCN)NC(=O)[C@H](NC(=O)[C@@H](Cc1ccccc1)NC(=O)[C@H](NC(=O)[C@@H](CC(=O)O)NC(=O)[C@H](N)CCCNC(=N)N)C(C)C)[C@H](C)O)[C@H](C)CC)C(=O)N[C@H](Cc1c[nH]c2ccccc12)C(=O)N[C@H](Cc1ccccc1)C(=O)N[C@H](CCC(N)=O)C(=O)N[C@H](CC(N)=O)C(=O)N[C@H](CCCNC(=N)N)C(=O)N[C@H](CCCNC(=N)N)C(=O)N[C@H](CCSC)C(=O)N[C@H](CCCCN)C(=O)N[C@H](Cc1c[nH]c2ccccc12)C(=O)N[C@H](CCCCN)C(=O)N[C@H](CCCCN)C(=O)O [D-ΔN-Ter-Antp] (H-[dR][dD][dV][dF][dT][dK]G[dY]G[dF]G[dL][dR][dQ][dI][dK][dI][dW][dF][dQ][dN][dR][dR][dM][dK][dW][dK][dK]-OH; N-terminus and C-terminus assumed)	effectively induce cell death	effectively induce cell death	only very weak staining								
CC[C@H](C)[C@H](NC(=O)[C@H](C)NC(=O)[C@@H](N)Cc1c[nH]cn1)C(=O)N[C@@H](Cc1ccc(O)cc1)C(=O)N1CCC[C@H]1C(=O)N[C@@H](CCCNC(=N)N)C(=O)N[C@@H](Cc1c[nH]cn1)C(=O)N[C@@H](CO)C(=O)N[C@@H](Cc1c[nH]c2ccccc12)C(=O)N[C@H](C(=O)N[C@@H](Cc1c[nH]c2ccccc12)C(=O)N[C@@H](CCC(=O)O)C(=O)N[C@H](CCCCN)C(=O)N[C@H](CCCCN)C(=O)N[C@H](CC(C)C)C(=O)N[C@H](CCC(=O)O)C(=O)N[C@@H](C(=O)N[C@H](C)C(=O)N[C@@H](C(=O)N[C@H](CC(N)=O)C(=O)N[C@H](CC(C)C)C(=O)N[C@H](C)C(=O)N[C@H](Cc1c[nH]c2ccccc12)C(=O)N[C@@H](C(=O)N[C@H](C)C(=O)NCC(=O)N[C@H](CC(N)=O)C(=O)N[C@H](CO)C(=O)N[C@H](CC(N)=O)C(=O)N[C@@H](CCCCN)C(=O)N[C@@H](Cc1c[nH]c2ccccc12)C(=O)N[C@H](C(=O)N[C@@H](Cc1c[nH]c2ccccc12)C(=O)N[C@@H](CCCCN)C(=O)O)[C@@H](C)O)[C@H](C)O)C(C)C)[C@H](C)O)[C@@H](C)O [Tf-D-LP4]	effectively induce cell death	effectively induce cell death	only very weak staining	markedly lower	dramatically lower	dramatically lower	dramatically lower	dramatically lower	dramatically lower	markedly lower	markedly lower
